Data reported in ChEMBL document CHEMBL1147564, “Synthesis and anti-inflammatory activity of natural and semisynthetic geranyloxycoumarins” (2004).

Columns and labels:
Type in all cases: functional
Mus musculus [1] = species on record: Mus musculus; assay: Inhibitory activity against mouse uM/cm**2 (control=7.0)
Mus musculus [2] = species on record: Mus musculus; assay: (§1) Percent uM/cm**2; set-up: concentration or dose not given beside the values
Mus musculus [3] = species on record: Mus musculus; assay: as §1

## CC(=O)Oc1c(OC/C=C(\C)CCC=C(C)C)ccc2ccc(=O)oc12
Mus musculus [1]
  ear oedema weight: 3.4 mg
Mus musculus [2]
  Reduction: 51%

## CC(C)=CCC/C(C)=C/COc1ccc2ccc(=O)oc2c1C
Mus musculus [1]
  ear oedema weight: 4.8 mg
Mus musculus [2]
  Reduction: 31%

## CC(C)=CCC/C(C)=C/COc1ccc2ccc(=O)oc2c1O
Mus musculus [1]
  ear oedema weight: 4.3 mg
Mus musculus [2]
  Reduction: 39%

## CC(C)=CCC/C(C)=C/COc1ccc2ccc(=O)oc2c1Cl
Mus musculus [1]
  ear oedema weight: 4.5 mg
Mus musculus [2]
  Reduction: 36%

## CCCCCOc1c(OC/C=C(\C)CCC=C(C)C)ccc2ccc(=O)oc12
Mus musculus [1]
  ear oedema weight: 6.4 mg
Mus musculus [2]
  Reduction: 9%

## CC(C)=CCC/C(C)=C/COc1ccc2ccc(=O)oc2c1OC/C=C(\C)CCC=C(C)C
Mus musculus [1]
  ear oedema weight: 5.1 mg
Mus musculus [2]
  Reduction: 27%

## CC(C)=CCC/C(C)=C/COc1ccc2ccc(=O)oc2c1F
Mus musculus [1]
  ear oedema weight: 5.1 mg
Mus musculus [2]
  Reduction: 27%

## CC(C)=CCC/C(C)=C/COc1ccc2ccc(=O)oc2c1Br
Mus musculus [1]
  ear oedema weight: 4 mg
Mus musculus [2]
  Reduction: 43%

## CC(C)=CCC/C(C)=C/COc1ccc2ccc(=O)oc2c1I
Mus musculus [1]
  ear oedema weight: 5 mg
Mus musculus [2]
  Reduction: 29%

## CC(C)=CCC/C(C)=C/COc1ccc2ccc(=O)oc2c1 [AURAPTENE]
Mus musculus [1]
  ear oedema weight: 3.4 mg
Mus musculus [2]
  Reduction: 51%

## COc1c(OC/C=C(\C)CCC=C(C)C)ccc2ccc(=O)oc12 [COLLININ]
Mus musculus [1]
  ear oedema weight: 3.7 mg
Mus musculus [2]
  Reduction: 47%

## COc1ccc2c(c1)c(CC(=O)O)c(C)n2C(=O)c1ccc(Cl)cc1 [INDOMETHACIN]
Mus musculus [1]
  ear oedema weight: 3.7 mg
Mus musculus [3]
  Reduction: 47%
